Structures are written as SMILES.

The target in test [1] is T1, Human recombinant USP1/UAF1 (Homo sapiens, UniProt O94782).
T1 construct: purchased R & D E-568-050; host or cells: baculovirus infected Sf21 cells
As to the kind of experiment: Enzymatic assay: USP1/UAF1 deubiquitination of Ubiquitin Rhodamine 110 (kinetic fluorescence). Type of test: biochemical. The conditions noted are these: 2 nM USP1/UAF1, 15 min preincubation at RT, HEPES pH 8.0, 500 nM Ubiquitin Rhodamine 110. As to the method: Example A1: Enzymatic Assay
Human recombinant USP1/UAF1 expressed in baculovirus infected Sf21 cells were used (R & D, E-568-050). Test compound and/or vehicle was incubated with 2 nM of USP1/UAF1 in modified HEPES buffer pH 8.0 for 15 minutes at RT. The reaction was initiated by addition of 500 nM of Ubiquitin Rhodamine 110 (R & D, U-555-050) for kinetic reading. Slope change of fluorescence intensity was read spectrofluorimetrically at 485 nm/535 nm. Dose response of test compounds or reference compound ML-323 was analyzed by nonlinear regression of GraphPad prism software.

In another test the test system is MDA-MB-436 cells. The experiment in a line: MDA-MB-436 breast cancer cell proliferation assay (CellTiter-Glo). Type of test: cell-based. The settings on record: Homo sapiens, 168 h, 7 days, 37° C. As to the method:
Example A2: MDA-MB-436 Breast Cancer Cell Culture
MDA-MB-436 cells were grown in Leibovitz's L-15 medium with 10 μg/ml insulin, 16 μg/ml glutathione, 10% FBS. Cells were passaged at subconfluence after trypsinization and maintained in incubators at 37° C. in a humidified atmosphere with 5% CO2.
Example A3: MDA-MB-436 Breast Cancer Cell Proliferation Assay
Cell proliferation was determined using CellTiter-Glo® Luminescent Cell Viability Assay (Promega, #G7573). MDA-MB-436 cells were seeded in 384-well plates and allowed to attach for 24 h. Compounds were added into 384-well plate by ECHO, and incubated at 37° C. in a humidified atmosphere with 5% CO2. After 7 days, CellTiter-Glo® was added into 384 well plates, contents were mixed on an orbital shaker at 400 g for 2 min before centrifuging the plate for 2 min at 1000 rpm. After incubation at RT for 30 min, luminescence was read on envision.
For orientation: In ATP-based viability assays light output follows the ATP content of the culture.

T1 sequence (O94782 whole entry): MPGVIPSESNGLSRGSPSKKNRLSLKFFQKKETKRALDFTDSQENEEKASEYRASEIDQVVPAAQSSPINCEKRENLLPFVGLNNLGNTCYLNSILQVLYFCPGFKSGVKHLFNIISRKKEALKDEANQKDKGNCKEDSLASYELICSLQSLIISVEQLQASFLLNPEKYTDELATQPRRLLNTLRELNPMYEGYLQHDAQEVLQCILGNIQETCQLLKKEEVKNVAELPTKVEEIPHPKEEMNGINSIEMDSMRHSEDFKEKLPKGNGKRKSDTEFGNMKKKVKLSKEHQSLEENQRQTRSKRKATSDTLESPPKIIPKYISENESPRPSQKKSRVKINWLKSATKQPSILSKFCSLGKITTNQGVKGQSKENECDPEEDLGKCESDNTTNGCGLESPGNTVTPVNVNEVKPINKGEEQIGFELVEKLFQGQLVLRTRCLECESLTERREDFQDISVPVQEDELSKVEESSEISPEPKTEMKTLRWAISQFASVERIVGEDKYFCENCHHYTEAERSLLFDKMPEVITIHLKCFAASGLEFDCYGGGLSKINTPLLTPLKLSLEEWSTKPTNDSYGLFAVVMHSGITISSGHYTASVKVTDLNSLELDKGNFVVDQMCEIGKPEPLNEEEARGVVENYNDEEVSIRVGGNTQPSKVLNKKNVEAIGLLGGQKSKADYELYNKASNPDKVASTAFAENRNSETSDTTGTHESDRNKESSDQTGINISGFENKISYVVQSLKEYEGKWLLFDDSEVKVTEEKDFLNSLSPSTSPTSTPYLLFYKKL
T1 sequence (Q8TAF3 whole entry partner): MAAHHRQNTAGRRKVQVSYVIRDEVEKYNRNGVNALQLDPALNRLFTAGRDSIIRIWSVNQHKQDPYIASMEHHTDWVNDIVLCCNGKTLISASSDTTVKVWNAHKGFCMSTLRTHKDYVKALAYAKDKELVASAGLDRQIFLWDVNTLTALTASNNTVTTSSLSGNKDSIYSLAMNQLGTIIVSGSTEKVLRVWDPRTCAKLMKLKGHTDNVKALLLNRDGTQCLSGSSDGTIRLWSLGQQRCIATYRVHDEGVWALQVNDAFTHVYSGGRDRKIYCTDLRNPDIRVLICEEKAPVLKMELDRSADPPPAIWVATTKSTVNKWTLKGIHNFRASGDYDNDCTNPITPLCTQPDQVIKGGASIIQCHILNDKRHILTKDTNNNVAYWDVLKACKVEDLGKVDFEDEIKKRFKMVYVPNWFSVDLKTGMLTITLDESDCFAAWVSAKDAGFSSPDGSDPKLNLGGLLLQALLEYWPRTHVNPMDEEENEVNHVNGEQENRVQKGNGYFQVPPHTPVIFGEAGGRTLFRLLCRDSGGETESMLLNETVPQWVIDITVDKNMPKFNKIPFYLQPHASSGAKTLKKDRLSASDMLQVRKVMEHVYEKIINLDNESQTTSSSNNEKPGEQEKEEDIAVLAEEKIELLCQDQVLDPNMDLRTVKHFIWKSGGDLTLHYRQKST

With `Cc1nn(-c2ccccc2C(C)C)c2c1CN(c1ncc(-c3nc(C(F)(F)F)cn3C)s1)C2` [Compound 22, 2-(1-(2-isopropylphenyl)-3-methyl-4,6-dihydropyrrolo[3,4-c]pyrazol-5(1H)-yl)-5-(1-methyl-4-(trifluoromethyl)-1H-imidazol-2-yl)thiazole], the IC50 (commonly the midpoint of a concentration-inhibition curve) in test [1] lay in the range of 50 to 1000 nM; in the test on MDA-MB-436 cells it was 1000 to 10000 nM.
The like results for `COc1ncnc(C2CC2)c1-n1nc(C(F)(F)F)c2c1CN(c1ccc(-c3nc(C(F)(F)F)cn3C)cn1)CC2` [Compound 23, 1-(4-cyclopropyl-6-methoxypyrimidin-5-yl)-6-(5-(1-methyl-4-(trifluoromethyl)-1H-imidazol-2-yl)pyridin-2-yl)-3-(trifluoromethyl)-4,5,6,7-tetrahydro-1H-pyrazolo[3,4-c]pyridine] were, in that order, 50 to 1000 nM and 50 to 1000 nM.
The like results for `Cc1nn(-c2c(OC(F)F)ncnc2C2CC2)c2c1CCN(c1ccc(-c3nc(C(F)(F)F)cn3C)cn1)C2` [Compound 24, 1-(4-cyclopropyl-6-(difluoromethoxy)pyrimidin-5-yl)-3-methyl-6-(5-(1-methyl-4-(trifluoromethyl)-1H-imidazol-2-yl)pyridin-2-yl)-4,5,6,7-tetrahydro-1H-pyrazolo[3,4-c]pyridine] were, in that order, 50 to 1000 nM and 50 to 1000 nM.
Regarding `COc1ncnc(C2CC2)c1-n1nc(C)c2c1CN(c1ccc(-c3nc(C(F)(F)F)cn3C)c(F)n1)CC2` [Compound 25, 1-(4-cyclopropyl-6-methoxypyrimidin-5-yl)-6-(6-fluoro-5-(1-methyl-4-(trifluoromethyl)-1H-imidazol-2-yl)pyridin-2-yl)-3-methyl-4,5,6,7-tetrahydro-1H-pyrazolo[3,4-c]pyridine], the IC50 (in test [1]; with MDA-MB-436 cells) was below 50 nM each time.
For `CC(C)c1ncccc1-c1nccc2c1CC(c1ccc(-c3nc(C(F)(F)F)cn3C)cc1)C2` (stereo not shown) [Compound 26, 1-(2-isopropylpyridin-3-yl)-6-(4-(1-methyl-4-(trifluoromethyl)-1H-imidazol-2-yl)phenyl)-6,7-dihydro-5H-cyclopenta[c]pyridine], the IC50 in test [1] was below 50 nM; in the test on MDA-MB-436 cells, 50 to 1000 nM.
Consider `Cc1cnn(C(C)C)c1-n1nc(C)c2c1CN(c1ccc(-c3nc(C(F)(F)F)cn3C)cn1)CC2` [Compound 27, 1-(1-isopropyl-4-methyl-1H-pyrazol-5-yl)-3-methyl-6-(5-(1-methyl-4-(trifluoromethyl)-1H-imidazol-2-yl)pyridin-2-yl)-4,5,6,7-tetrahydro-1H-pyrazolo[3,4-c]pyridine], for which the half-maximal inhibitory concentration (IC50) (in test [1]; in the test on MDA-MB-436 cells) was below 50 nM each time.
As to `COc1ncnc(C2CC2)c1-n1nc(Cl)c2c1CN(c1ccc(-c3nc(C(F)(F)F)cn3C)cn1)CC2` [Compound 28, 3-chloro-1-(4-cyclopropyl-6-methoxypyrimidin-5-yl)-6-(5-(1-methyl-4-(trifluoromethyl)-1H-imidazol-2-yl)pyridin-2-yl)-4,5,6,7-tetrahydro-1H-pyrazolo[3,4-c]pyridine], the IC50 (in test [1]; in the test on MDA-MB-436 cells) was below 50 nM in each case.
In the case of `CCn1cc(C(F)(F)F)nc1-c1cnc(N2CCc3c(C)nn(-c4c(C)cnn4C(C)C)c3C2)cn1` [Compound 29, 6-(5-(1-ethyl-4-(trifluoromethyl)-1H-imidazol-2-yl)pyrazin-2-yl)-1-(1-isopropyl-4-methyl-1H-pyrazol-5-yl)-3-methyl-4,5,6,7-tetrahydro-1H-pyrazolo[3,4-c]pyridine], the IC50 (in test [1]; in the test with MDA-MB-436 cells) was below 50 nM in each case.
Consider `Cc1cnn(C(C)C)c1-n1nc(C)c2c1CN(c1ccc(-c3nc(C(F)(F)F)cn3C)c(F)c1)CC2` [Compound 30, 6-(3-fluoro-4-(1-methyl-4-(trifluoromethyl)-1H-imidazol-2-yl)phenyl)-1-(1-isopropyl-4-methyl-1H-pyrazol-5-yl)-3-methyl-4,5,6,7-tetrahydro-1H-pyrazolo[3,4-c]pyridine], for which the half-maximal inhibitory concentration (IC50) (in test [1]; in the test with MDA-MB-436 cells) was below 50 nM throughout.
Take `COc1ncnc(C2CC2)c1-c1nccc2c1CC(c1ccc(-c3nc(C(F)(F)F)cn3C)cn1)C2` (stereo not shown) [Compound 31, 1-(4-cyclopropyl-6-methoxypyrimidin-5-yl)-6-(5-(1-methyl-4-(trifluoromethyl)-1H-imidazol-2-yl)pyridin-2-yl)-6,7-dihydro-5H-cyclopenta[c]pyridine]: the half-maximal inhibitory concentration (IC50) in test [1] lay in the range of 50 to 1000 nM; in the test on MDA-MB-436 cells, 1000 to 10000 nM.
Consider `CCn1cc(C(F)(F)F)nc1-c1cnc(N2CCc3c(C)nn(-c4c(OC)ncnc4C4CC4)c3C2)cn1` [Compound 32, 1-(4-cyclopropyl-6-methoxypyrimidin-5-yl)-6-(5-(1-ethyl-4-(trifluoromethyl)-1H-imidazol-2-yl)pyrazin-2-yl)-3-methyl-4,5,6,7-tetrahydro-1H-pyrazolo[3,4-c]pyridine], for which the IC50 in test [1] is below 50 nM; with MDA-MB-436 cells, 50 to 1000 nM.

The record behind these values is patent US20260337193A1, “SMALL MOLECULE INHIBITORS OF UBIQUITIN SPECIFIC PROTEASE 1 (USP1) AND USES THEREOF” (Insilico Medicine IP Limited, priority 2023, published 2026).
